Experimental findings from US20240124478A1, “SPIROCYCLIC-SUBSTITUTED 6,7-DIHYDRO-PYRANO[2,3-d]PYRIMIDINE INHIBITORS OF KRAS G12C MUTANT” (Merck Sharp & Dohme LLC, priority 2020, published 2024) are described below.

Test [1] addresses recombinant biotinylated KRAS protein containing G12C/C51S/C80L/C118S mutations (Biotinylated KRAS G12C protein) (Homo sapiens (Human), UniProt P01116, C118S/C51S/C80L/G12C). Nature of the test: SOS-catalyzed nucleotide exchange assay (TR-FRET). The test is classed as biochemical. Conditions: apparent potency; preincubation time of 60 minutes prior to addition of SOS. Here is the method: The SOS-catalyzed nucleotide exchange assay utilizes a preformed complex of recombinant biotinylated KRAS protein containing G12C/C51S/C80L/C118S mutations (183 amino acids; biotin on K10; leader sequence which is an AviTag; referred to as SEQ ID NO: 1 or “Biotinylated KRAS G12C protein” hereafter), Bodipy-GDP, and Terbium-streptavidin. Compounds are added to this complex and then after 60 minutes incubation time, the mixture is treated with recombinant SOS protein and unlabeled GTP. Small molecule inhibitors stabilize the Bodipy-GDP complex whereas the untreated protein rapidly exchanges Bodipy-GDP for unlabeled GTP resulting in reduced TR-FRET signal.
Biotinylated KRAS G12C protein (SEQ ID NO: 1) is diluted to 2 μM in an EDTA buffer (20 mM HEPES, 150 mM sodium chloride, 10 mM EDTA, and 0.01% Tween) and incubated at room temperature for one hour. This mixture is then further diluted to 90 nM in an assay buffer (20 mM HEPES, 150 mM sodium chloride, 10 mM magnesium chloride, and 0.005% Tween) containing 15 nM of Terbium-Streptavidin (Invitrogen, catalog #PV3577) and 900 nM of Bodipy-GDP and incubated at room temperature for six hours. This solution is referred to as Biotinylated KRAS G12C mixture.
Each test compound (10 mM stock in DMSO) is diluted in DMSO to make a 10-point, 3-fold dilution series in a 384-well low dead volume microplate (Labcyte, catalog #LP-0200). Once titrations are made, 10 nL of the diluted compounds is acoustically dispensed into a 384-well plate (Corning, catalog #3820) using an Echo 550 (Labcyte).
Each well of the plate receives 3 μL Biotinylated KRAS G12C mixture that had been incubating for six hours and 3 μL of assay buffer using a BioRAPTR (Beckman Coulter) and is incubated at room temperature for 60 minutes. Each well then receives 3 μL of 240 nM recombinant human SOS protein and 9 mM GTP (Sigma, G8877) in assay buffer and is incubated at room temperature for 60 minutes.
The time-resolved fluorescence resonance energy transfer signal of the plate is measured on an Envision (PerkinElmer) plate reader: Excitation filter=340 nm; emission1=495 nm; emission2=520 nm; dichroic mirror=D400/D505; delay time=100 μs. The signal of each well is determined as the ratio of the emission at 520 nm to that at 495 nm. Percent effect of each well is determined after normalization to control wells containing DMSO (no effect) or a saturating concentration of inhibitor (max effect). The apparent effect as a function of compound concentration is fit to a four parameter logistic equation.
Background: TR-FRET usually uses a lanthanide donor and a delayed reading to cut background.

The subject of a further test is NCI-H358 cells. As to the kind of experiment: Cellular phospho-ERK assay. The test is classed as cell-based. Conditions: 2 hour incubation, ratio of p-Erk vs total Erk, read-out: IC50 (nM) pERK (Cell). As to the method: NCI-H358 cells (ATCC® CRL-5807™) were cultured in T150 flask in growth medium (RPMI medium 1640-(ThermoFisher Scientific 61870) containing 10% fetal bovine serum (ThermoFisher Scientific 10091148)). The cells were harvested in growth medium after TrypLE (ThermoFisher scientific 12604021) digestion and were seeded in 384-well collagen coated cell culture plate (Corning 356702) at a density of 15,000 cells/well, and incubated at 37° C., 5% CO2 overnight. The compound dose-response titrations were prepared and appropriate amounts of compounds were dispensed in a 384-well intermediate plate using an Echo 550 liquid handler. RPMI medium 1640-GlutaMAX™-I were added to the intermediate plate and transferred to 384-well cell culture plate, which was incubated at 37° C., 5% CO2 for 2 hours. After removal of medium from the plate, cells were lysed in lysis buffer from SureFire® Ultra™ Multiplex p-Erk and total Erk assay kit (PerkinElmer MPSU-PTERK) containing Halt™ Protease and Phosphotase inhibitor cocktail (ThermoFisher Scientific 78446) at room temperature with constant shaking at 300 rpm for 30 minutes. The cell lysates were then transferred to OptiPlate-384 plate (PerkinElmer 6005620) and the phosphorylation of Erk and total Erk levels were detected by Alpha SureFire Ultra Multiplex p-Erk kit PerkinElmer MPSU-PTERK) following the manufacturer's protocol. Assay plates were read on an EnVision Multimode Plate Reader (PerkinElmer), and the ratio of p-Erk vs total Erk in each well was used as the final readout. Dose response curves were analyzed using a 4-parameter logistic model to calculate IC50 values using spotfire software.

By IC50 is commonly meant the concentration needed to halve the response being measured.

Like-named read-outs stand apart in the source and are kept apart here.

Chain of recombinant biotinylated KRAS protein containing G12C/C51S/C80L/C118S mutations (Biotinylated KRAS G12C protein) (P01116 other isoform, or with tags, fused parts or gaps, stated change not applied): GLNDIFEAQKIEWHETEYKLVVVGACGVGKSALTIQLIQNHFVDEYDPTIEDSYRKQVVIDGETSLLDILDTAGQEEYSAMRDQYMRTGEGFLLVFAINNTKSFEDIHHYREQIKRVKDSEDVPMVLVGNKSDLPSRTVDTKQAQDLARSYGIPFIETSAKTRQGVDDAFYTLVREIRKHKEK

In the case of `C=CC(=O)N1CCN(c2nc(OC[C@@H]3CCCN3C)nc3c2CCC2(CCC(F)(F)c4ccccc42)O3)C[C@@H]1CC#N` (single isomer, unassigned) [Example 7b], the IC50 in test [1] is 119 nM; in the test with NCI-H358 cells it was 2150 nM.
On the same counts, the results for `C=CC(=O)N1CCN(c2nc(OC[C@@H]3CCCN3C)nc3c2CCC2(CCCc4c(C)cc(C)cc42)O3)C[C@@H]1CC#N` (single isomer, unassigned) [Example 11b] are 661 nM and 28600 nM.
For `C=CC(=O)N1CCN(c2nc(OC[C@@H]3CCCN3C)nc3c2CCC2(O3)c3ccccc3CCC2C)C[C@@H]1CC#N` (single isomer, unassigned) [Example 10b] the same measures were 50 nM and 4530 nM.
On to `C=CC(=O)N1CCN(c2nc(OC[C@@H]3CCCN3C)nc3c2CCC2(CCC(C)(C)c4ccccc42)O3)C[C@@H]1CC#N` (single isomer, unassigned) [Example 6a], for which the IC50 in test [1] worked out at 181 nM; in the test on NCI-H358 cells (Homo sapiens, NCI-H358, 2 h), 3100 nM.
As for `C=CC(=O)N1CCN(c2nc(OC[C@@H]3CCCN3C)nc3c2CCC2(O3)c3ccccc3CC2(C)C)C[C@@H]1CC#N` (single isomer, unassigned) [Example 27b], the IC50 came out at 4490 nM in test [1] and 28600 nM in the test with NCI-H358 cells.
For `C=CC(=O)N1CCN(c2nc(OC[C@@H]3CCCN3C)nc3c2CCC2(CCCc4c(F)cccc42)O3)C[C@@H]1CC#N` (single isomer, unassigned) [Example 3a] the same measures were 14.5 nM and 506 nM.
On the same counts, the results for `C=CC(=O)N1CCN(c2nc(OC[C@@H]3CCCN3C)nc3c2CCC2(CCc4ccccc42)O3)C[C@@H]1CC#N` (single isomer, unassigned) [Example 4a] are 14.9 nM and 311 nM.
On the same counts, the results for `C=CC(=O)N1CCN(c2nc(OC[C@@H]3CCCN3C)nc3c2CCC2(CCCc4ccccc42)O3)C[C@@H]1CC#N` (single isomer, unassigned) [Example 2b] are 14.7 nM and 268 nM.
Regarding `C=CC(=O)N1CCN(c2nc(OC[C@@H]3CCCN3C)nc3c2CCC2(Cc4ccccc4C2)O3)C[C@@H]1CC#N` [Example 29, 2-((S)-1-acryloyl-4-(2′-(((S)-1-methylpyrrolidin-2-yl)methoxy)-1,3,5′,6′-tetrahydrospiro[indene-2,7′-pyrano[2,3-d]pyrimidin]-4′-yl)piperazin-2-yl)acetonitrile], the IC50 in test [1] amounted to 5010 nM; with NCI-H358 cells (Homo sapiens, NCI-H358, 2 h), 19200 nM.
With `C=CC(=O)N1CCN(c2nc(N3CC(N(C)C)C3)nc3c2CCC2(CCCc4ccccc42)O3)C[C@@H]1CC#N` (single isomer, unassigned) [Example 20b], the IC50 in test [1] was determined as 80.4 nM; in the test with NCI-H358 cells, 2760 nM.
On the same counts, the results for `C=CC(=O)N1CCN(c2nc(OC[C@@H]3CCCN3C)nc3c2CCC2(CCC(C)c4ccccc42)O3)C[C@@H]1CC#N` (single isomer, unassigned) [Example 9c] are 110 nM and 1840 nM.
Regarding `C=CC(=O)N1CCN(c2nc(OC[C@@H]3CCCN3C)nc3c2CCC2(O3)c3ccccc3-c3ccccc32)C[C@@H]1CC#N` [Example 30, 2-((S)-1-acryloyl-4-(2′-(((S)-1-methylpyrrolidin-2-yl)methoxy)-5′,6′-dihydrospiro[fluorene-9,7′-pyrano[2,3-d]pyrimidin]-4′-yl)piperazin-2-yl)acetonitrile], the IC50 is 68.6 nM in test [1] and 1290 nM with NCI-H358 cells (Homo sapiens, NCI-H358, 2 h).
Turning to `C=CC(=O)N1CCN(c2nc(OC[C@@H]3CCCN3C)nc3c2CCC2(CC(C)c4ccccc42)O3)C[C@@H]1CC#N` (single isomer, unassigned) [Example 25c], the IC50 is 253 nM in test [1] and 11000 nM with NCI-H358 cells.
On the same counts, the results for `C=CC(=O)N1CCN(c2nc(OC[C@@H]3CCCN3C)nc3c2CCC2(CCC(C)c4ccccc42)O3)C[C@@H]1CC#N` (single isomer, unassigned) [Example 9a] are 40.5 nM and 1940 nM.
Regarding `C=CC(=O)N1CCN(c2nc(OC[C@@H]3CCCN3C)nc3c2CCC2(CCCc4ccccc42)O3)C[C@H]1C` (stereo partly drawn) [Example 14a, 1-((2R)-2-methyl-4-(2′-(((S)-1-methylpyrrolidin-2-yl)methoxy)-3,4,5′,6′-tetrahydro-2H-spiro[naphthalene-1,7′-pyrano[2,3-d]pyrimidin]-4′-yl)piperazin-1-yl)prop-2-en-1-one], the IC50 in test [1] stood at 2080 nM; in the test with NCI-H358 cells (Homo sapiens, NCI-H358, 2 h) it was 4200 nM.
On the same counts, the results for `C=CC(=O)N1CCN(c2nc(OC[C@@H]3CCCN3C)nc3c2CCC2(CCCc4ccnc(O)c42)O3)C[C@@H]1CC#N` (mixture of isomers) [Example 8, 2-((2S)-1-acryloyl-4-(1-hydroxy-2′-(((S)-1-methylpyrrolidin-2-yl)methoxy)-5′,6,6′,7-tetrahydro-5H-spiro[isoquinoline-8,7′-pyrano[2,3-d]pyrimidin]-4′-yl)piperazin-2-yl)acetonitrile] are 990 nM and 23400 nM.
Consider `C=CC(=O)N1CCN(c2nc(OC[C@@H]3CCCN3C)nc3c2CCC2(CCCc4ccccc42)O3)C[C@@H]1CC#N` (single isomer, unassigned) [Example 2a], for which the IC50 in test [1] is 13.7 nM; in the test with NCI-H358 cells (Homo sapiens, NCI-H358, 2 h), 154 nM.
Regarding `C=CC(=O)N1CCN(c2nc(OC[C@@H]3CC(F)(F)CN3C)nc3c2CCC2(CCCc4ccccc42)O3)C[C@@H]1CC#N` (single isomer, unassigned) [Example 16b], the IC50 was 109 nM in test [1] and 1650 nM in the test on NCI-H358 cells.
As for `C=CC(=O)N1CCN(c2nc(OC[C@@H]3CCCN3C)nc3c2CCC2(CCc4ccccc42)O3)CC1` (single isomer, unassigned) [Example 22a], the IC50 stood at 6320 nM in test [1] and 24600 nM with NCI-H358 cells (Homo sapiens, NCI-H358, 2 h).
Take `C=CC(=O)N1CCN(c2nc(OC[C@@H]3CCCN3C)nc3c2CCC2(CC(C)c4ccccc42)O3)C[C@@H]1CC#N` (single isomer, unassigned) [Example 25b]: the IC50 in test [1] was determined as 11.6 nM; in the test with NCI-H358 cells, 2740 nM.
On to `C=CC(=O)N1CCN(c2nc(C(N)=O)nc3c2CCC2(CCCc4ccccc42)O3)C[C@@H]1CC#N` (single isomer, unassigned) [Example 18b], for which the IC50 in test [1] amounted to 268 nM; in the test with NCI-H358 cells (Homo sapiens, NCI-H358, 2 h), 1520 nM.
Consider `C=CC(=O)N1CCN(c2nc(OC[C@@H]3CCCN3C)nc3c2CCC2(CCCc4cccc(C)c42)O3)C[C@@H]1CC#N` (single isomer, unassigned) [Example 1a], for which the IC50 amounted to 6.37 nM in test [1] and 495 nM in the test with NCI-H358 cells.
As to `C=CC(=O)N1CCN(c2nc(OC[C@@H]3CCCN3C)nc3c2CCC2(CCC(F)(F)c4ccccc42)O3)C[C@@H]1CC#N` (single isomer, unassigned) [Example 7a], the IC50 in test [1] is 77.3 nM; in the test with NCI-H358 cells (Homo sapiens, NCI-H358, 2 h), 1620 nM.
